In patent publication US5409934A, “Xanthine derivatives” (priority 1990, dated 1995):

How the values were obtained:
PDE (IV) = test: Inhibition of phosphodiesterase PDE IV (cAMP-specific), boronate column method; type: biochemical, guinea-pig; details: cAMP as substrate, 37° C., pH 7.5; read-out: Inhibition of PDE expressed as IC50, PDE (IV)
Experimental: (§1) The Ca^2+ /calmodulin-stimulated PDE (PDE I, see Table 1 and Beavo and Reifsynder (1990) for nomenclature) was prepared from bovine cardiac ventricle. Following chromatography on a Mono Q column, the fractions showing stimulation of PDE activity by CA^2+ and calmodulin were pooled and further purified on a calmodulin-affinity column. […] Initial chromatography on a 20 ml Mono Q column resolved PDE III from a peak that contained both PDE II and PDE IV. The latter were separated by a cGMP-affinity column. The resolved PDEs were separately rechromatographed on a 1 ml Mono Q column. cGMP-selective PDE (PDE V) was obtained from porcine lung using chromatography on DEAE-cellulose and Mono Q columns; a calmodulin-affinity column was used to remove residual PDE I activity.
PDE activity was assayed by the boronate column method as previously described (Reeves et al., 1987). The enzymes were assayed by incubation at 37° C. for 4-30 min in 50 mM Tris, 5 mM MgCl2, pH 7.5 with ^3 H-labelled cyclic nucleotide (4×105 disintegrations min^-1) and ^14 C-labelled nucleotide 5'-monophosphate (3×10^3 disintegrations min^-1). The assay was stopped by boiling, and the ^3 H-labelled 5'-monophosphate product separated from substrate on boronate columns. The reaction mixture was diluted with 0.5 mL 100 mM HEPES [N-(2-hydroxyethyl)piperazine-N ^1 -2-ethanesulfonic acid], 100 mM NaCl, pH 8.5, and applied to the column. The column was extensively washed with the same buffer, and the 5'-nucleotide eluted with 6mL of 0.25M acetic acid.

PDE (V) = PDE (V) (Sus scrofa, UniProt A0A287B475); test: Inhibition of phosphodiesterase PDE V (cGMP-specific), boronate column method; type: biochemical, porcine; details: 37° C., pH 7.5; read-out: Inhibition of PDE expressed as IC50, PDE (V)
Experimental: The latter were separated by a cGMP-affinity column. The resolved PDEs were separately rechromatographed on a 1 ml Mono Q column. cGMP-selective PDE (PDE V) was obtained from porcine lung using chromatography on DEAE-cellulose and Mono Q columns; a calmodulin-affinity column was used to remove residual PDE I activity. PDEV This isoenzyme had high affinity for cGMP. […] PDE activity was assayed by the boronate column method as previously described (Reeves et al., 1987). The enzymes were assayed by incubation at 37° C. for 4-30 min in 50 mM Tris, 5 mM MgCl2, pH 7.5 with ^3 H-labelled cyclic nucleotide (4×105 disintegrations min^-1) and ^14 C-labelled nucleotide 5'-monophosphate (3×10^3 disintegrations min^-1). The assay was stopped by boiling, and the ^3 H-labelled 5'-monophosphate product separated from substrate on boronate columns. […] The column was extensively washed with the same buffer, and the 5'-nucleotide eluted with 6mL of 0.25M acetic acid.

blood eosinophilia = test: Sephadex induced blood eosinophilia in the rat; type: in vivo, Male Charles River Sprague Dawley rats; details: 30 min before each Sephadex injection, n = 6
Experimental: Induction of blood eosinonhilia and the effects of drugs.
Male Charles River Sprague Dawley rats weighing between 270 to 400 g were used.
The method used was a modification of that described by Laycock et al (Int. Arch. Appl. Immunol, (1986). 81, 363).
Sephadex G200, particle size 40 to 120 micron, was suspended in isotonic saline at 0.5 mg/ml, and stored for 48 h at 4° C. 1 ml of the suspension was given intravenously to rats on days 0, 2 and 5. The test compound was given before the Sephadex on each occasion, with a contact time expected to give maximum activity at the time of the Sephadex administration. Blood was taken from the tail vein of the rats on day 7 for the determination of total and differential leucocyte counts.
A control group of at least 6 animals was included each time a compound was evaluated. The control group received Sephadex and the vehicle without test compound. The results in the drug treated animals were compared with the control group.
[…] of blood, taken from the tail vein of the rats, were added to 10 ml of Isoton II and, within 30rain, Zapoglobin (3 drops) was added, to lyse the erythrocytes. Five minutes later the total cell count was determined using a Coulter Counter Model DN. […] A minimum of 400 cells were counted on each slide.
Probability values were calculated using the Student's t test. […]

[1] = test system: cGMP-stimulated PDE (PDE II); test: Kinetic properties of phosphodiesterase isoenzyme II; type: biochemical, guinea-pig; details: substrate of PDE II; enzyme displayed positive cooperativity
Experimental: as §1, with “Following” for “The Ca^2+ /calmodulin-stimulated PDE (PDE I, see Table 1 and Beavo and Reifsynder (1990) for nomenclature) was prepared from bovine cardiac ventricle. Following”
(§2) The assay was stopped by boiling, and the ^3 H-labelled 5'-monophosphate product separated from substrate on boronate columns. The reaction mixture was diluted with 0.5 mL 100 mM HEPES [N-(2-hydroxyethyl)piperazine-N ^1 -2-ethanesulfonic acid], 100 mM NaCl, pH 8.5, and applied to the column. The column was extensively washed with the same buffer, and the 5'-nucleotide eluted with 6mL of 0.25M acetic acid.

[2] = test system: cAMP-specific PDE (PDE IV); test: Kinetic properties of phosphodiesterase isoenzyme IV; type: biochemical, guinea-pig; details: substrate of PDE IV, class symbol
Experimental: as §1, with “Following” for “The Ca^2+ /calmodulin-stimulated PDE (PDE I, see Table 1 and Beavo and Reifsynder (1990) for nomenclature) was prepared from bovine cardiac ventricle. Following”
as §2

[3] = test system: cGMP-inhibited PDE (PDE III); test: Kinetic properties of phosphodiesterase isoenzyme III; type: biochemical, guinea-pig; details: substrate of PDE III
Experimental: as §1, with “Following” for “The Ca^2+ /calmodulin-stimulated PDE (PDE I, see Table 1 and Beavo and Reifsynder (1990) for nomenclature) was prepared from bovine cardiac ventricle. Following”
as §2

[4] = test system: Ca^2+ /calmodulin-stimulated PDE (PDE I); test: Kinetic properties of phosphodiesterase isoenzyme I; type: biochemical, bovine; details: substrate of PDE I
Experimental: as §1, with “Following” for “The Ca^2+ /calmodulin-stimulated PDE (PDE I, see Table 1 and Beavo and Reifsynder (1990) for nomenclature) was prepared from bovine cardiac ventricle. Following”
as §2

[5] = test system: cGMP-specific PDE (PDE V); test: Kinetic properties of phosphodiesterase isoenzyme V; type: biochemical, porcine; details: substrate of PDE V
Experimental: as §1, with “Following” for “The Ca^2+ /calmodulin-stimulated PDE (PDE I, see Table 1 and Beavo and Reifsynder (1990) for nomenclature) was prepared from bovine cardiac ventricle. Following”
PDEV This isoenzyme had high affinity for cGMP.
as §2

| Compound | IC50 (PDE (IV)) | IC50 (PDE (V)) | other results |
| --- | --- | --- | --- |
| COc1ccc(S(=O)(=O)n2c(Cl)nc3c2c(=O)n(CC2CC2)c(=O)n3CC2CC2)cc1 [Example 7, 8-Chloro-1,3-di(cyclopropylmethyl)-7-(4-methoxybenzenesulphonyl)xanthine] | 11 µM | > 100 µM | – |
| Nc1nc2c(c(=O)n(CC3CC3)c(=O)n2CC2CC2)n1S(=O)(=O)c1ccc(Cl)cc1 [Example 9, 8-Amino-1,3-di(cylcopropylmethyl)-7-(4-chlorobenzenesulphonyl)xanthine] | 4 µM | – | – |
| COc1ccc(Cn2c(N(S(=O)(=O)c3ccccc3)S(=O)(=O)c3ccccc3)nc3c2c(=O)n(CC2CC2)c(=O)n3CC2CC2)cc1 [Example 23, 1,3-Di(cyclopropylmethyl)-8-di(benzenesulphonyl)amino-7-(4-methoxy-benzyl)xanthine] | > 100 µM | 7 µM | – |
| COc1ccc(S(=O)(=O)Nc2nc3c(c(=O)n(CC4CC4)c(=O)n3CC3CC3)n2Cc2cc(OC)c(OC)c(OC)c2)cc1 [Example 25, 1,3-Di(cyclopropylmethyl)-8-(4-methoxybenzenesulphonamido)-7-(3,4,5-trimethoxybenzyl)xanthine] | > 100 µM | – | – |
| Nc1nc2c(ncn2[C@@H]2O[C@@H]3COP(=O)(O)O[C@H]3[C@H]2O)c(=O)[nH]1 [cGMP] | – | – | Km [1]: 14 µM; Km [2]: > 100 µM; Km [3]: 0.1 µM; Km [4]: 5 µM; Km [5]: 1 µM |

Further lines, with some results ahead:

| IC50 (PDE (IV)) | IC50 (PDE (V)) | Compound | other results |
| --- | --- | --- | --- |
| 3 µM | 4 µM | Nc1nc2c(c(=O)n(CC3CC3)c(=O)n2CC2CC2)n1S(=O)(=O)c1ccccc1 [Example 1, 8-Amino-7-benzenesulphonyl-1,3-di(cyclopropylmethyl)xanthine] | – |
| 3 µM | 0.4 µM | COc1ccc(S(=O)(=O)n2c(N)nc3c2c(=O)n(CC2CC2)c(=O)n3CC2CC2)cc1 [Example 2, 8-Amino-1,3-di(cyclopropylmethyl)-7-(4-methoxybenzenesulphonyl)xanthine] | Eosinophilia, % of Control Mean ± SEM (blood eosinophilia; 20 mg/kg orally, *p < 0.05): 62 ± 7 % of Control; Eosinophilia, % of Control Mean ± SEM (blood eosinophilia; 50 mg/kg orally, **p < 0.01): 51 ± 7 % of Control |
| 4 µM | 0.2 µM | COc1ccc(S(=O)(=O)n2c(N)nc3c2c(=O)n(CC2CC2)c(=O)n3CC2CC2)cc1OC [Example 3, 8-Amino-1,3-di-(cyclopropylmethyl)-7-(3,4-dimethoxy-benzenesulphonyl)xanthine] | – |
